Each compound was assayed against T1, KRAS G12C 1-169, his-tagged protein, GDP-loaded (Homo sapiens, UniProt P01116, G12C) (assay: Biochemical assay: covalent modification of KRAS G12C measured by mass spectrometry (RapidFire/TOF or Q-Exactive)). Settings: covalent binding to (modification of) KRAS G12C after a ten minute incubation period.
T1 construct: KRAS G12C 1-169, his-tagged protein, GDP-loaded
Type: binding
Outline: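 Intact-mass readout (TOF or Q-Exactive, charge-envelope deconvolution) gives percent covalent adduct from modified and unmodified species. Compound at 10, 30 or 100 μM was incubated at room temperature for 10 min to 24 h with 2 μM or 0.5 μM GDP-bound KRAS G12C 1-169 in Hepes/NaCl/MgCl2 buffer, then acid-quenched.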
In the case of `C=CC(=O)N1C[C@H](C)N(c2nc(OC[C@H]3CCCN3C)nc3c(F)c(-c4c(C)ccc5[nH]nc(C6CC6)c45)c(Cl)cc23)C[C@H]1C` [Compound 160, 1-((2R,5S)-4-(6-chloro-7-(3-cyclopropyl-5-methyl-1H-indazol-4-yl)-8-fluoro-2-(((R)-1-methylpyrrolidin-2-yl)methoxy)quinazolin-4-yl)-2,5-dimethylpiperazin-1-yl)prop-2-en-1-one], the Binding % is reported as “+++ (+++ indicates binding activity greater than 80%)”.
With `C=CC(=O)N1C[C@H](C)N(c2nc(OC[C@H]3CCCN3C)nc3c(F)c(-c4c(C)ccc5[nH]nc(C)c45)c(Cl)cc23)C[C@H]1C` [Compound 161, 1-((2R,5S)-4-(6-chloro-7-(3,5-dimethyl-1H-indazol-4-yl)-8-fluoro-2-(((R)-1-methylpyrrolidin-2-yl)methoxy)quinazolin-4-yl)-2,5-dimethylpiperazin-1-yl)prop-2-en-1-one] the Binding % was “+++ (+++ indicates binding activity greater than 80%)”.
`C=CC(=O)N1C[C@H](C)N(c2nc(OC[C@@H]3CCCN3C)nc3c(F)c(-c4c(C)ccc5[nH]nc(C)c45)c(Cl)cc23)C[C@H]1C` [Compound 162, 1-((2R,5S)-4-(6-chloro-7-(3,5-dimethyl-1H-indazol-4-yl)-8-fluoro-2-(((S)-1-methylpyrrolidin-2-yl)methoxy)quinazolin-4-yl)-2,5-dimethylpiperazin-1-yl)prop-2-en-1-one] was tested, and the Binding % was “+++ (+++ indicates binding activity greater than 80%)”.
For `C=CC(=O)N1C[C@H](C)N(c2nc(OCCN3CCC(F)CC3)nc3c(F)c(-c4c(C)ccc5[nH]nc(C)c45)c(Cl)cc23)C[C@H]1C` [Compound 163, 1-((2R,5S)-4-((S)-6-chloro-7-(3,5-dimethyl-1H-indazol-4-yl)-8-fluoro-2-(2-(4-fluoropiperidin-1-yl)ethoxy)quinazolin-4-yl)-2,5-dimethylpiperazin-1-yl)prop-2-en-1-one], the Binding % was “+ (+ indicates binding activity greater than 0% and up to 50%)”.
For `C=CC(=O)N1C[C@H](C)N(c2nc(OCCN3CCC(F)CC3)nc3c(F)c(-c4c(C)ccc5[nH]nc(C)c45)c(Cl)cc23)C[C@H]1C` [Compound 164, 1-((2R,5S)-4-((R)-6-chloro-7-(3,5-dimethyl-1H-indazol-4-yl)-8-fluoro-2-(2-(4-fluoropiperidin-1-yl)ethoxy)quinazolin-4-yl)-2,5-dimethylpiperazin-1-yl)prop-2-en-1-one], the Binding % was “+++ (+++ indicates binding activity greater than 80%)”.
For `C=CC(=O)N1CCN(c2nc(N3CC(N(C)C)C3)nc3c(F)c(-c4c(C)ccc5[nH]nc(N)c45)c(Cl)cc23)C[C@H]1C` [Compound 165, 1-((2R)-4-(7-(3-amino-5-methyl-1H-indazol-4-yl)-6-chloro-2-(3-(dimethylamino)azetidin-1-yl)-8-fluoroquinazolin-4-yl)-2-methylpiperazin-1-yl)prop-2-en-1-one], the Binding % was “+++ (+++ indicates binding activity greater than 80%)”.
`C=CC(=O)N1C[C@H](C)N(c2nc(N3CC(N(C)C)C3)nc3c(F)c(-c4c(C)ccc5cnn(C)c45)c(C(F)(F)F)cc23)C[C@H]1C` [Compound 171, 1-((2R,5S)-4-(7-(1,6-dimethyl-1H-indazol-7-yl)-2-(3-(dimethylamino)azetidin-1-yl)-8-fluoro-6-(trifluoromethyl)quina-zolin-4-yl)-2,5-dimethylpiperazin-1-yl)prop-2-en-1-one] was tested, and the Binding % was “+++ (+++ indicates binding activity greater than 80%)”.
`C=CC(=O)N1C[C@H](C)N(c2nc(OC[C@H]3CCCN3C)nc3c(F)c(-c4c(C)ccc5[nH]nc(C6CC6)c45)c(Cl)cc23)C[C@H]1C` [Compound 172, 1-((2R,5S)-4-(6-chloro-7-(3-cyclopropyl-5-methyl-1H-indazol-4-yl)-8-fluoro-2-(((R)-1-methylpyrroldiin-2-yl)methoxy)quinazolin-4-yl)-2,5-dimethylpiperazin-1-yl)prop-2-en-1-one] was tested, and the Binding % was “+++ (+++ indicates binding activity greater than 80%)”.
For `C=CC(=O)N1C[C@H](C)N(c2nc(N3CC(N(C)C)C3)nc3c(F)c(-c4c(C)ccc5cnn(C6CC6)c45)c(C(F)(F)F)cc23)C[C@H]1C` [Compound 173, 1-((2R,5S)-4-(7-(1-cyclopropyl-6-methyl-1H-indazol-7-yl)-2-(3-(dimethylamino)azetidin-1-yl)-8-fluoro-6-(trifluoromethyl)quina-zolin-4-yl)-2,5-dimethylpiperazin-1-yl)prop-2-en-1-one], the Binding % was “+++ (+++ indicates binding activity greater than 80%)”.
With `C=CC(=O)N1C[C@H](C)N(c2nc(OC[C@@H]3CCN(C)C3)nc3c(F)c(-c4c(C)ccc5cnn(C)c45)c(Cl)cc23)C[C@H]1C` [Compound 174, 1-((2R,5S)-4-(6-chloro-7-(1,6-dimethyl-1H-indazol-7-yl)-8-fluoro-2-(((R)-1-methylpyrrolidin-3-yl)methoxy)quinazolin-4-yl)-2,5-dimethylpiperazin-1-yl)prop-2-en-1-one] the Binding % was “+++ (+++ indicates binding activity greater than 80%)”.
`C=CC(=O)N1C[C@H](C)N(c2nc(OC[C@@H]3CCN(C)C3)nc3c(F)c(-c4c(C)ccc5[nH]nc(C)c45)c(Cl)cc23)C[C@H]1C` [Compound 175, 1-((2R,5S)-4-(6-chloro-7-(3,5-dimethyl-1H-indazol-4-yl)-8-fluoro-2-(((R)-1-methylpyrrolidin-3-yl)methoxy)quinazolin-4-yl)-2,5-dimethylpiperazin-1-yl)prop-2-en-1-one] was tested, and the Binding % was “++ (++ indicates binding activity from 50 to 80%)”.
With `C=CC(=O)N1C[C@H](C)N(c2nc(OC[C@@H]3CN(C)CCO3)nc3c(F)c(-c4c(C)ccc5cnn(C)c45)c(Cl)cc23)C[C@H]1C` [Compound 176, 1-((2R,5S)-4-(6-chloro-7-(1,6-dimethyl-1H-indazol-7-yl)-8-fluoro-2-(((S)-4-methylmorpholin-2-yl)methoxy)quinazolin-4-yl)-2,5-dimethylpiperazin-1-yl)prop-2-en-1-one] the Binding % was “+++ (+++ indicates binding activity greater than 80%)”.
`C=CC(=O)N1C[C@H](C)N(c2nc(OC[C@@H]3CCN(C)C3)nc3c(F)c(-c4c(C)ccc5[nH]nc(C6CC6)c45)c(Cl)cc23)C[C@H]1C` [Compound 177, 1-((2R,5S)-4-(6-chloro-7-(3-cyclopropyl-5-methyl-1H-indazol-4-yl)-8-fluoro-2-(((R)-1-methylpyrrolidin-3-yl)methoxy)quinazolin-4-yl)-2,5-dimethylpiperazin-1-yl)prop-2-en-1-one] was tested, and the Binding % was “+++ (+++ indicates binding activity greater than 80%)”.
`C=CC(=O)N1C[C@H](C)N(c2nc(OC[C@H]3COCCN3C)nc3c(F)c(-c4c(C)ccc5cnn(C)c45)c(Cl)cc23)C[C@H]1C` [Compound 178, 1-((2R,5S)-4-(6-chloro-7-(1,6-dimethyl-1H-indazol-7-yl)-8-fluoro-2-(((R)-4-methylmorpholin-3-yl)methoxy)quinazolin-4-yl)-2,5-dimethylpiperazin-1-yl)prop-2-en-1-one] was tested, and the Binding % was “++ (++ indicates binding activity from 50 to 80%)”.
For `C=CC(=O)N1C[C@H](C)N(c2nc(OC[C@H]3CCCN3C)nc3c(F)c(-c4c(C)ccc5[nH]nc(C)c45)c(Cl)cc23)C[C@H]1C` [Compound 179, 1-((2R,5S)-4-(6-chloro-7-(3,5-dimethyl-1H-indazol-4-yl)-8-fluoro-2-(((R)-1-methylpyrrolidin-2-yl)methoxy)quinazolin-4-yl)-2,5-dimethyllpiperazin-1-yl)prop-2-en-1-one], the Binding % was “+++ (+++ indicates binding activity greater than 80%)”.

From US11377441B2, “Covalent inhibitors of KRAS” (Araxes Pharma LLC, priority 2017, dated 2022)
